Measurements published in US20060276464A1, “Diarylsulfone sulfonamides and use thereof” (Wyeth, priority 2005, published 2006).
pEC50, pIC50: −log10 of the molar value. Several values for one entry are separate records, joined by “and”; a condition that tells them apart may be missing. Equal values may be shown once. Read-outs that look alike come from different tables or passages of the source.

Key:
SFRP-1 [1] = biological target: T1, SFRP-1 (Homo sapiens, UniProt Q8N474); experiment: Fluorescence polarization binding assay (competitive displacement of a probe compound from SFRP-1); settings: fluorescence anisotropy, 45 nM SFRP-1, 20 nM probe;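 further: test compound competes with a fluorescent probe held by SFRP-1, seen as a drop in probe anisotropy after incubation in darkness, with anisotropy as function of rising compound dose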
T1 sequence (Q8N474 32-314): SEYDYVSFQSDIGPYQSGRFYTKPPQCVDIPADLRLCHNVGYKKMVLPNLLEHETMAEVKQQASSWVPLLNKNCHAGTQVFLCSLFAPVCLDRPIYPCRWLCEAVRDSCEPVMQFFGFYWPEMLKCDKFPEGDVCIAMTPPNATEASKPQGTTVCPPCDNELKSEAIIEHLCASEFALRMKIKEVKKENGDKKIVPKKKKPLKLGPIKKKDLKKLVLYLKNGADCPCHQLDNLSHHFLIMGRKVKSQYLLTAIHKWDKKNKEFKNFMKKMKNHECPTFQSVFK

SFRP-1 [2] = biological target: T1, SFRP-1; experiment: Cell-based assay for in vitro measurement of SFRP-1/SARP2 antagonist activity (U2OS cells co-transfected with 16x TCF-tk-Luciferase reporter, Wnt and hSFRP-1); settings: for fold induction at 10 µM / fold induction at 15 µM: U2OS; for fold induction at 10 µM: read-out: Fold Induction with SFRP-1, U2OS cells, single dose 10 μM, luciferase reporter, fold induction over SFRP-1 control;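 on all read-outs here: U2OS cells co-transfected with a TCF-tk luciferase reporter, a Wnt vector, hSFRP-1 or empty vector and CMV-βgal, luciferase luminescence read in cell lysates alongside βgal activity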
[3] = read-out: Fold Induction with SFRP-1, Conc 15 μM, with SFRP-1, fold induction over SFRP-1 control, single dose
[4] = read-out: Fold Induction without SFRP-1, Conc 15 μM, without SFRP-1, single dose
[5] = read-out: Fold Induction with SFRP-1, Conc 15 μM, single dose, luciferase reporter, fold induction over SFRP-1 control, cells with SFRP-1
[6] = read-out: Fold Induction without SFRP-1, Conc 15 μM, single dose, luciferase reporter, cells without SFRP-1 (specificity control)

Row | SMILES | pIC50 (SFRP-1 [1]) | pEC50 (SFRP-1 [2]) | fold induction at 10 µM (SFRP-1 [2]) | fold induction at 15 µM (SFRP-1 [2]; [3]) | fold induction at 15 µM (SFRP-1 [2]; [4]) | fold induction at 15 µM (SFRP-1 [2]; [5]) | fold induction at 15 µM (SFRP-1 [2]; [6])
1 | CN(CCCNS(=O)(=O)c1cc(S(=O)(=O)c2ccccc2)ccc1C(F)(F)F)C(=O)NC1CCNCC1 [Example 971, N-(3-{methyl[(piperidin-4-ylamino)carbonyl]amino}propyl)-5-(phenylsulfonyl)-2-(trifluoromethyl)benzenesulfonamide] | 6.22 | 6.11 | 2.7 | – | – | – | –
2 | CC(C)c1ccc(S(=O)(=O)c2ccc(F)cc2)cc1S(=O)(=O)NCCCn1ccnc1 [Example 319, 5-[(4-fluorophenyl)sulfonyl]-N-[3-(1H-imidazol-1-yl)propyl]-2-isopropylbenzenesulfonamide] | 6.22 | – | – | 3.5 | 1.1 | – | –
3 | CCc1ccc(S(=O)(=O)c2ccc(F)cc2)cc1S(=O)(=O)NC(C)C(O)c1ccccc1 (stereo not drawn) [Example 392, 2-ethyl-5-[(4-fluorophenyl)sulfonyl]-N-[(trans)-2-hydroxy-1-methyl-2-phenylethyl]benzenesulfonamide] | 5.40 | – | – | 2.8 | 1 | – | –
4 | COc1ccc(C(=O)N2CCC(NS(=O)(=O)c3cc(S(=O)(=O)c4ccccc4)ccc3C)CC2)cc1 [Example 467, N-[1-(4-methoxybenzoyl)piperidin-4-yl]-2-methyl-5-(phenylsulfonyl)benzenesulfonamide] | 5.72 | – | – | 2.3 | 1 | – | –
5 | CCOC(=O)CCN(C)CCNS(=O)(=O)c1cc(S(=O)(=O)c2ccccc2)ccc1C(F)(F)F [Example 907, ethyl N-methyl-N-[2-({[5-(phenylsulfonyl)-2-(trifluoromethyl)phenyl]sulfonyl}amino)ethyl]-β-alaninate] | 6.05 | – | 2.2 | – | – | – | –
6 | O=C(c1ccnc(Cl)c1)N1CCC(NS(=O)(=O)c2cc(S(=O)(=O)c3ccccc3)ccc2C(F)(F)F)CC1 [Example 978, N-[1-(2-chloroisonicotinoyl)piperidin-4-yl]-5-(phenylsulfonyl)-2-(trifluoromethyl)benzenesulfonamide] | 6.60 | 6.41 | – | – | – | – | –
7 | O=C(c1ccc(Cl)c(Cl)c1)N1CCC(NS(=O)(=O)c2cc(S(=O)(=O)c3ccccc3)ccc2C(F)(F)F)CC1 [Example 712, N-[1-(3,4-dichlorobenzoyl)piperidin-4-yl]-5-(phenylsulfonyl)-2-(trifluoromethyl)benzenesulfonamide] | 6.30 | – | 2.9 | – | – | – | –
8 | COc1cccc(S(=O)(=O)c2ccc(C(F)(F)F)c(S(=O)(=O)NCCO)c2)c1 [Example 785, N-(2-hydroxyethyl)-5-[(3-methoxyphenyl)sulfonyl]-2-(trifluoromethyl)benzenesulfonamide] | 5.96 | – | 2.9 | – | – | – | –
9 | COC(=O)CCNS(=O)(=O)c1cc(S(=O)(=O)c2ccccc2)ccc1C [Example 204, methyl N-{[2-methyl-5-(phenylsulfonyl)phenyl]sulfonyl}-beta-alaninate] | 5.10 | – | – | 3.4 | 1.1 | – | –
10 | CC(C)(C)OC(=O)N1CCC(CCNS(=O)(=O)c2cc(S(=O)(=O)c3ccccc3)ccc2C(F)(F)F)CC1 [Example 931, tert-butyl 4-[2-({[5-(phenylsulfonyl)-2-(trifluoromethyl)phenyl]sulfonyl}amino)ethyl]piperidine-1-carboxylate] | 5.40 | 5.89 | 2.9 | – | – | – | –
11 | Cc1c(Cl)cccc1S(=O)(=O)c1ccc(C(C)C)c(S(=O)(=O)NCCc2ccccn2)c1 [Example 514, 5-[(3-chloro-2-methylphenyl)sulfonyl]-2-isopropyl-N-(2-pyridin-2-ylethyl)benzenesulfonamide] | 6.15 | – | – | – | – | 2.6 | 1
12 | C[C@@H](NS(=O)(=O)c1cc(S(=O)(=O)c2ccccc2)ccc1Cl)[C@H](O)c1ccccc1 (relative stereo) [Example 676, 2-chloro-N-[(1R*,2R*)-2-hydroxy-1-methyl-2-phenylethyl]-5-(phenylsulfonyl)benzenesulfonamide] | 5.05 | 5.05 | 2.6 | – | – | – | –
13 | CC(C)c1ccc(S(=O)(=O)c2ccc(F)cc2)cc1S(=O)(=O)NCCc1ccc[n+]([O-])c1 [Example 652, 5-[(4-fluorophenyl)sulfonyl]-2-isopropyl-N-[2-(1-oxidopyridin-3-yl)ethyl]benzenesulfonamide] | 6.10 and 6.15 | – | – | – | – | 3.8 | 1
14 | CCCCNC(=S)N1CCC(NS(=O)(=O)c2cc(S(=O)(=O)c3ccc(F)cc3)ccc2C(C)C)CC1 [Example 694, N-butyl-4-[({5-[(4-fluorophenyl)sulfonyl]-2-isopropylphenyl}sulfonyl)amino]piperidine-1-carbothioamide] | 5.54 | 5.06 | 2.6 | – | – | – | –
15 | CS(=O)(=O)Nc1ccc(CCNS(=O)(=O)c2cc(S(=O)(=O)c3ccccc3)ccc2C(F)(F)F)cc1 [Example 987, N-(2-{4-[(methylsulfonyl)amino]phenyl}ethyl)-5-(phenylsulfonyl)-2-(trifluoromethyl)benzenesulfonamide] | 6.85 | 6.64 | – | – | – | – | –
16 | CN(CCNS(=O)(=O)c1cc(S(=O)(=O)c2ccccc2)ccc1C(F)(F)F)C(=O)N1CCCC1 [Example 833, N-methyl-N-[2-({[5-(phenylsulfonyl)-2-(trifluoromethyl)phenyl]sulfonyl}amino)ethyl]pyrrolidine-1-carboxamide] | 6.40 | 5.90 | 3.4 | – | – | – | –
17 | COc1ccc(OC)c(S(=O)(=O)c2ccc(C)c(S(=O)(=O)NCCc3ccccn3)c2)c1 [Example 421, 5-[(2,5-dimethoxyphenyl)sulfonyl]-2-methyl-N-(2-pyridin-2-ylethyl)benzenesulfonamide] | 5.05 | – | – | 2.2 | 1.2 | – | –
18 | CC(C)c1ccc(S(=O)(=O)c2ccc(F)cc2)cc1S(=O)(=O)NC1CCS(=O)(=O)CC1 [Example 858, N-(1,1-dioxidotetrahydro-2H-thiopyran-4-yl)-5-[(4-fluorophenyl)sulfonyl]-2-isopropylbenzenesulfonamide] | 5.85 | – | 3.8 | – | – | – | –
19 | CN(CCNS(=O)(=O)c1cc(S(=O)(=O)c2ccccc2)ccc1C(F)(F)F)C(=O)N[C@@H]1CCN(C(=O)OC(C)(C)C)C1 [Example 990, tert-butyl (3R)-3-[({methyl[2-({[5-(phenylsulfonyl)-2-(trifluoromethyl)phenyl]sulfonyl}amino)ethyl]amino}carbonyl)amino]pyrrolidine-1-carboxylate] | 6.89 | 6.24 | – | – | – | – | –
20 | Cc1c(Cl)cccc1S(=O)(=O)c1ccc(C(C)C)c(S(=O)(=O)NC2CCOCC2)c1 [Example 542, 5-[(3-chloro-2-methylphenyl)sulfonyl]-2-isopropyl-N-(tetrahydro-2H-pyran-4-yl)benzenesulfonamide] | 5.85 | – | – | – | – | 2.7 | 1.1
21 | CC(C)c1ccc(S(=O)(=O)c2ccccc2)cc1S(=O)(=O)NC1CCC(C(=O)O)CC1 (stereo not shown) [Example 953, 4-({[2-isopropyl-5-(phenylsulfonyl)phenyl]sulfonyl}amino)cyclohexanecarboxylic acid] | 5.15 | – | 1.5 | – | – | – | –
